35 compounds from PubChem BioAssay AID1645871 can be followed below.

A value given as a limit tells only on which side of the number the result lay.

The conditions of this data set: pampa; pH 5.0; 30.0 min; 50.0 µM.
`CCC(CC)C(=O)NC[C@@H]1C=C(C)[C@H](Cc2nc3c(C)cccc3[nH]2)C[C@H]1C(C)C`: the Papp (usually a coefficient for how fast a substance crosses the barrier) is greater than 1000 ×10⁻⁶ cm/s.
The value for `CCc1ccc(-n2nc(C)c3c2NC(=O)CSC3c2ccccc2C)cc1` (stereo not given) was 707 ×10⁻⁶ cm/s; that for `CCCCNC(=O)CN1CCN(c2ncc(NC(=O)c3ccc(Cl)cc3)cc2C(=O)O)CC1` was 1.92 ×10⁻⁶ cm/s; that for `COc1ccc(CCNC(=O)Cn2c(=O)c3cccn3c3ccc(F)cc32)cc1OC` was 317 ×10⁻⁶ cm/s.
Turning to `CCOC(=O)c1ccc(N2C(=O)c3n[nH]c(-c4cccs4)c3C2c2ccc(OCC)cc2)cc1` (stereo not given), the Papp amounted to 448 ×10⁻⁶ cm/s.
The value for `Oc1ccc(-c2nc(C3CC3)nc3c2CCN(CC2CCCCC2)CC3)cc1` was 190 ×10⁻⁶ cm/s; that for `Cc1ccc(-c2ccc(CNc3nc(-c4ccccc4C(C)C)nc4ccccc34)cc2)cn1` was 857 ×10⁻⁶ cm/s.
Consider `CNc1sc(-c2cccc3ccccc23)nc1C#N`, for which the Papp amounted to 268 ×10⁻⁶ cm/s. Compared with the last compound, the Papp is about 3.2-fold lower.
For `CC(C)Oc1ccc(CNC(=O)C2CCN(C(=O)N3CCOc4ccc(Cl)cc43)CC2)cc1`, the Papp came out at 860 ×10⁻⁶ cm/s.
In turn, `CCCCn1cc2c(c1-c1ccc(Br)cc1)c(=O)n(C)c(=O)n2C` gave a Papp greater than 1000 ×10⁻⁶ cm/s.
As to `COc1ccc(-n2nc3c(N4CCCC(C(=O)NCCc5ccc(C)cc5)C4)nnc(C)c3c2C)cc1` (stereo not given), the Papp is 467 ×10⁻⁶ cm/s.
As for `CCC1=Nc2cc(C(=O)NC3CCCC3)ccc2Sc2ccc(Cl)cc21`, the figure is 640 ×10⁻⁶ cm/s; as for `O=C(c1cc2ccccc2[nH]1)N1CCc2c(n(Cc3cccnc3)n(CCc3ccccc3)c2=O)C1`, 229 ×10⁻⁶ cm/s; as for `COc1ccc(-c2cc(C)nc3c(-c4ccc(OC)c(OC)c4)c(C)nn23)cc1`, greater than 1000 ×10⁻⁶ cm/s.
The value for `CNc1nc(-c2ccc3c(N)n[nH]c3c2)cc(N2C[C@@H](C(=O)NC3CCCCC3)CC[C@H]2C)n1` was 26.1 ×10⁻⁶ cm/s; that for `CC[C@H](C)[C@@H]([C@@H](CC(=O)N1CCC[C@H]1[C@H](OC)[C@@H](C)C(=O)N[C@@H](Cc1ccccc1)c1nccs1)OC)N(C)C(=O)[C@@H](NC(=O)[C@H](C(C)C)N(C)C)C(C)C` was 224 ×10⁻⁶ cm/s.
As for `C[C@H]1CCC[C@H](O)CCC/C=C/c2cc(O)cc(O)c2C(=O)O1`, the figure is 795 ×10⁻⁶ cm/s; as for `CNc1nc2c(s1)C(c1ccccc1F)CC(=O)N2` (stereo not given), 60.3 ×10⁻⁶ cm/s; as for `CCc1cc(Cl)c(OC)c(C(=O)NC[C@@H]2CCCN2CC)c1O`, 899 ×10⁻⁶ cm/s.
Turning to `Cc1noc(C)c1-c1cc(-c2ccc3c(c2)C(=O)NC3)cn2cncc12`, the Papp is 64.5 ×10⁻⁶ cm/s.
As for `CN1CCN(Cc2ccc(NC(=O)Cc3ccc(Oc4cc(NC(=O)C5CC5)ncn4)cc3)cc2C(F)(F)F)CC1`, the figure is 19.3 ×10⁻⁶ cm/s.
Take `CCOC(=O)c1ccc(NC(=O)c2sc3nc4c(cc3c2N)N2CCC4CC2)cc1`: the Papp amounted to 720 ×10⁻⁶ cm/s.
The value for `CC1=C[C@@H](CNC(C)C)[C@H](C(C)C)C[C@H]1Cc1nnc(-c2ccncc2)o1` was 41.3 ×10⁻⁶ cm/s.
The compound `COc1cccc(C(=O)Nc2ccc3oc(-c4ccc5ccccc5c4)nc3c2)c1` had a Papp of 756 ×10⁻⁶ cm/s.
In turn, `CNc1nc2c(s1)C(c1ccc(Cl)cc1)CC(=O)N2` (stereo not given) had a Papp of 204 ×10⁻⁶ cm/s.
The value for `CNC(=O)c1ccccc1Nc1nc(Nc2ccc(N3CCOCC3)cc2OC)ncc1Cl` was 145 ×10⁻⁶ cm/s.
The value for `NC1CCN(C(=O)C2CCCN(c3nc(-c4ccccc4)nc4c3CCC4)C2)CC1` (stereo not given) was 7.56 ×10⁻⁶ cm/s; that for `Cc1nn2c(c1-c1ccccc1-c1ccccc1)N(Cc1ccc(O)cc1)CCC2` was 118 ×10⁻⁶ cm/s; that for `CC1=Nc2cc(C(=O)NCCc3ccccc3)ccc2Sc2c(C)ccc(C)c21` was 466 ×10⁻⁶ cm/s.
Consider `S=c1[nH]c2ccccc2n1CCc1ccccc1`, for which the Papp turned out to be 903 ×10⁻⁶ cm/s. This Papp lies about 1.9-fold higher than the previous one.
Compound `COc1cc(C(=O)N2CCN(c3cc(Cl)ccc3Cl)CC2)cc(OC)c1OC` yielded an apparent permeability coefficient (Papp) greater than 1000 ×10⁻⁶ cm/s.
As for `Cc1cccc(S(=O)(=O)c2cn(Cc3ccccc3)c3cc(N4CCCC(C)C4)c(F)cc3c2=O)c1` (stereo not given), the figure is 832 ×10⁻⁶ cm/s; as for `O=C(Nc1ccc(OC(F)(F)Cl)cc1)c1cnc(N2CC[C@@H](O)C2)c(-c2ccn[nH]2)c1`, 16.8 ×10⁻⁶ cm/s; as for `CC(C)CNc1ccnc(NCc2csc(-c3ccccc3)n2)n1`, greater than 1000 ×10⁻⁶ cm/s.
`Cc1nn2c(c1-c1ccccc1Oc1ccccc1)N(Cc1ccccc1O)CCC2` registered a Papp of 879 ×10⁻⁶ cm/s.
